The values that follow come from ChEMBL document CHEMBL1137314, “Small-molecule inhibitors of the MDM2-p53 protein-protein interaction based on an isoindolinone scaffold” (J Med Chem, 2006).

Activity calls are given as the source filed them. The calls are words filed in the database; no cut-off is given here.

One may read the IC50 as the concentration needed to halve the response being measured. Higher therefore signals weaker potency.

The target of the first assay is Tumour suppressor p53/oncoprotein Mdm2 (Homo sapiens, UniProt Q00987). Description: Inhibition of p53-MDM2 interaction by ELISA.
Tumour suppressor p53/oncoprotein Mdm2, sequence (P04637 whole entry): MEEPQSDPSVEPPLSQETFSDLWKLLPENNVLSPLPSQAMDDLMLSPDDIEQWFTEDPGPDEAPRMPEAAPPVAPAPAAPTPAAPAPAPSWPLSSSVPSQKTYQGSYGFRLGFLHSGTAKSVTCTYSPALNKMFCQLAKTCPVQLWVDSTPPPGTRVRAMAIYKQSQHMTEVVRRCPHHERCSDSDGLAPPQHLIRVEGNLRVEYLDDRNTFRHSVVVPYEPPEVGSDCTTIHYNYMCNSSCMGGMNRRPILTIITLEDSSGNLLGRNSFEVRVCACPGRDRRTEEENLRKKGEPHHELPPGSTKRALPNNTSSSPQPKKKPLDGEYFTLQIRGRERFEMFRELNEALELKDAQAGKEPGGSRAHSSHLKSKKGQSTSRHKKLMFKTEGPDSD
Tumour suppressor p53/oncoprotein Mdm2, sequence (Q00987 whole entry): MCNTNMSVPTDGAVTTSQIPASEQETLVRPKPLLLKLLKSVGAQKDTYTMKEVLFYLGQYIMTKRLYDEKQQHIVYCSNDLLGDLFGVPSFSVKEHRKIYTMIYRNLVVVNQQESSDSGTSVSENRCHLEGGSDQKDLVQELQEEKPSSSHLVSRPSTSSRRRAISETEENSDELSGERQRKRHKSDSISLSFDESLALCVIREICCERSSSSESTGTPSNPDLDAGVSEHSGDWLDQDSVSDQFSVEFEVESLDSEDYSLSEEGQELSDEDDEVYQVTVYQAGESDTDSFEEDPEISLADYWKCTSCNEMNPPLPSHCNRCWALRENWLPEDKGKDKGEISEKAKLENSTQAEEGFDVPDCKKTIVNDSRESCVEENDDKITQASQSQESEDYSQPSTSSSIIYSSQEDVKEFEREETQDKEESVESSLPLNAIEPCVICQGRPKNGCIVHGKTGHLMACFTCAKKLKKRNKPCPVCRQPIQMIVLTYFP
Settings: not given
It counts as protein assay. A general note: ELISA stands for enzyme-linked immunosorbent assay.
As to `NC(=O)COC1(c2ccccc2)c2ccccc2C(=O)N1Cc1ccccc1` (stereo unspecified), the IC50 was > 500 µM.
On to `O=C1c2ccccc2C(NCC(O)c2ccc(O)cc2)(c2ccccc2)N1Cc1ccccc1` (stereo unspecified), for which it took 227 µM to reach half-maximal inhibition (IC50).
For `COC(=O)CCNC1(c2ccccc2)c2ccccc2C(=O)N1Cc1ccccc1` (stereo unspecified), the IC50 was > 500 µM.
Still for that read-out and setting: then `CCCOC1(c2ccccc2)c2ccccc2C(=O)N1CCO` (stereo unspecified), with > 500 µM.
On the same count and under the same terms, in the case of `O=C1c2ccccc2C(NCC(O)c2cccc(O)c2)(c2ccccc2)N1Cc1ccccc1` (stereo unspecified) it was 84 µM.
Same read-out and setting: in the case of `CN(CCOC1(c2ccccc2)c2ccccc2C(=O)N1Cc1ccccc1)c1ccc(C=O)cc1` (stereo unspecified) it was 191 µM; in that of `O=C1c2ccccc2C(=O)N1CCOC1(c2ccccc2)c2ccccc2C(=O)N1Cc1ccccc1` (stereo unspecified), 152 µM; in that of `O=C1c2ccccc2C(OCCc2ccccc2)(c2ccccc2)N1Cc1ccccc1` (stereo unspecified), > 500 µM.
In turn, `COC(=O)C(Cc1ccc(O)cc1)N1C(=O)c2ccccc2C1(OCCOC(C)=O)c1ccccc1` (stereo unspecified) gave an IC50 of 380 µM.
On the same count and under the same terms, then `CCCN1C(=O)c2ccccc2C1(OCCN1CCNC1=O)c1ccc(C(C)(C)C)cc1` (stereo unspecified), with 74.3 µM; and `C=CC(=O)OCCOC1(c2ccccc2)c2ccccc2C(=O)N1Cc1ccccc1` (stereo unspecified), with 439 µM; and `O=C1c2ccccc2C(OCCN2CCOCC2)(c2ccccc2)N1Cc1ccccc1` (stereo unspecified), with > 500 µM.
On the same count and under the same terms, then `C=C(C)C(=O)OCCNC1(c2ccccc2)c2ccccc2C(=O)N1Cc1ccccc1` (stereo unspecified), with 353 µM; and `CCCOC1(c2ccccc2)c2ccccc2C(=O)N1CCC` (stereo unspecified), with > 200 µM.
Consider `COC(=O)[C@@H](C)COC1(c2ccccc2)c2ccccc2C(=O)N1Cc1ccccc1` (stereo partly specified), for which the IC50 was found to be 330 µM.
On the same count and under the same terms, then `COC(=O)C(Cc1ccc(O)cc1)N1C(=O)c2ccccc2C1(OCCN(CCC#N)c1ccccc1)c1ccccc1` (stereo unspecified), with 88 µM; and `CCCOC1(c2ccccc2)c2ccccc2C(=O)N1Cc1ccc(OC)cc1` (stereo unspecified), with 413 µM; and `O=C1c2ccccc2C(OCc2ccc(Cl)c([N+](=O)[O-])c2)(c2ccccc2)N1Cc1ccccc1` (stereo unspecified), with 206 µM.
Compound `O=C(NCCOC1(c2ccccc2)c2ccccc2C(=O)N1Cc1ccccc1)c1ccc(O)cc1O` (stereo unspecified) yielded an IC50 of 96 µM.
On the same count and under the same terms, then `CCCOC1(c2ccccc2)c2ccccc2C(=O)N1[C@@H](CCCCN)C(=O)OC` (stereo partly specified), with 79 µM; and `CCCN1C(=O)c2ccccc2C1(OCc1cc([N+](=O)[O-])c(C)c([N+](=O)[O-])c1)c1ccc(OCOCC[Si](C)(C)C)cc1` (stereo unspecified), with 103 µM; and `CCCN1C(=O)c2ccccc2C1(OCCS(C)(=O)=O)c1ccc(C(C)(C)C)cc1` (stereo unspecified), with 290 µM.
Still for that read-out and setting: in the case of `O=C1c2ccccc2C(OCc2cccc(O)c2)(c2ccccc2)N1Cc1ccccc1` (stereo unspecified) it was 58 µM; in that of `CCCN1C(=O)c2ccccc2C1(OCCNC(=O)c1ccccc1O)c1ccc(C(C)(C)C)cc1` (stereo unspecified), 70.1 µM.
`COC(=O)C(Cc1ccc(O)cc1)N1C(=O)c2ccccc2C1(OCCn1c([N+](=O)[O-])cnc1C)c1ccccc1` (stereo unspecified) gave an IC50 of 275 µM.
The same measure, in the same setting: in the case of `O=C1c2ccccc2C(OCc2cccc([N+](=O)[O-])c2)(c2ccccc2)N1Cc1ccccc1` (stereo unspecified) it was 284 µM; in that of `Cc1cccc(N(CCC#N)CCOC2(c3ccccc3)c3ccccc3C(=O)N2Cc2ccccc2)c1` (stereo unspecified), 243 µM; in that of `O=C1c2ccccc2C(NC(CO)C(O)c2ccccc2)(c2ccccc2)N1Cc1ccccc1` (stereo unspecified), 85 µM.
On the same count and under the same terms, in the case of `CCCN1C(=O)c2ccccc2C1(OCCc1ccc(O)cc1)c1ccc(C(C)(C)C)cc1` (stereo unspecified) it was 69.7 µM.
Regarding `CCCOC1(c2ccccc2)c2ccccc2C(=O)N1[C@H](C(=O)OC)c1ccc(O)cc1` (stereo partly specified), the IC50 turned out to be 90 µM.
Still for that read-out and setting: then `O=C1CCCN1CCOC1(c2ccccc2)c2ccccc2C(=O)N1Cc1ccccc1` (stereo unspecified), with 393 µM; and `CCOC(=O)CCC(NC1(c2ccccc2)c2ccccc2C(=O)N1Cc1ccccc1)C(=O)OCC` (stereo unspecified), with > 500 µM; and `CCCNC1(c2ccccc2)c2ccccc2C(=O)N1Cc1ccccc1` (stereo unspecified), with 200 µM.
On the same count and under the same terms, in the case of `O=C1c2ccccc2C(OCCNC(=O)C(F)(F)F)(c2ccccc2)N1Cc1ccccc1` (stereo unspecified) it was 409 µM.
On the same count and under the same terms, then `CCCN1C(=O)c2ccccc2C1(OCc1[nH]cnc1C)c1ccc(C(C)(C)C)cc1` (stereo unspecified), with 64.3 µM; and `C=C(C)C(=O)OCCN1C(=O)c2ccccc2C1(N[C@@H](CO)[C@@H](O)c1ccccc1)c1ccccc1` (stereo partly specified), with 103 µM; and `CC(=O)NCCOC1(c2ccccc2)c2ccccc2C(=O)N1Cc1ccccc1` (stereo unspecified), with 281 µM.
`COc1ccc([C@@H](O)COC2(c3ccccc3)c3ccccc3C(=O)N2CCCO)cc1` (stereo partly specified): the midpoint of inhibition, the IC50, lay at 326 µM.
Same read-out and setting: in the case of `O=Cc1ccc(COC2(c3ccccc3)c3ccccc3C(=O)N2Cc2ccccc2)o1` (stereo unspecified) it was 97 µM; in that of `N#CCCNC1(c2ccccc2)c2ccccc2C(=O)N1Cc1ccccc1` (stereo unspecified), 190 µM; in that of `COC(=O)COC1(c2ccccc2)c2ccccc2C(=O)N1Cc1ccccc1` (stereo unspecified), > 500 µM.
On the same count and under the same terms, then `Cc1ccc([N+](=O)[O-])c(COC2(c3ccccc3)c3ccccc3C(=O)N2Cc2ccccc2)c1` (stereo unspecified), with 232 µM.
As for `O=C1CCC(=O)N1CCOC1(c2ccccc2)c2ccccc2C(=O)N1Cc1ccccc1` (stereo unspecified), the IC50 is 284 µM.
Same read-out and setting: then `O=C1c2ccccc2C(N[C@@H](CO)[C@@H](O)c2ccccc2)(c2ccccc2)N1Cc1ccccc1` (stereo partly specified), with 85 µM; and `O=C1c2ccccc2C(OCCOc2ccccc2O)(c2ccccc2)N1Cc1ccccc1` (stereo unspecified), with 221 µM; and `CC(NC1(c2ccccc2)c2ccccc2C(=O)N1Cc1ccccc1)C(O)c1ccc(O)cc1` (stereo unspecified), with 185 µM.
Compound `O=C1c2ccccc2C(OCc2ccc(O)cc2)(c2ccccc2)N1Cc1ccccc1` (stereo unspecified) showed an IC50 of 79 µM.
The same measure, in the same setting: then `O=C1c2ccccc2C(=O)N1CCCOC1(c2ccccc2)c2ccccc2C(=O)N1Cc1ccccc1` (stereo unspecified), with 189 µM; and `COCCOC1(c2ccccc2)c2ccccc2C(=O)N1Cc1ccccc1` (stereo unspecified), with 490 µM; and `CC(=O)NCCNC1(c2ccccc2)c2ccccc2C(=O)N1Cc1ccccc1` (stereo unspecified), with > 500 µM.
As for `C=CCNC(=S)NCCOC1(c2ccccc2)c2ccccc2C(=O)N1Cc1ccccc1` (stereo unspecified), half-maximal inhibition (IC50) was put at 408 µM.
The same measure, in the same setting: in the case of `C[Si](C)(C)CCOCOc1ccc(C2(OCCCO)c3ccccc3C(=O)N2Cc2ccccc2)cc1` (stereo unspecified) it was 476 µM; in that of `O=C1c2ccccc2C(OC/C=C/c2ccccc2)(c2ccccc2)N1Cc1ccccc1` (stereo unspecified), 334 µM; in that of `CCCOC1(c2ccccc2)c2ccccc2C(=O)N1Cc1ccccc1` (stereo unspecified), > 200 µM.
Take `CCCOC1(c2ccccc2)c2ccccc2C(=O)N1CCCC(OC)OC` (stereo unspecified): the IC50 was 70 µM.
The same measure, in the same setting: in the case of `CCCN1C(=O)c2ccccc2C1(OCc1cc2c(cc1[N+](=O)[O-])OCO2)c1ccc(C(C)(C)C)cc1` (stereo unspecified) it was 70.2 µM; in that of `O=C1c2ccccc2C(OCCS(=O)(=O)O)(c2ccccc2)N1Cc1ccccc1` (stereo unspecified), 345 µM.
`O=C1c2ccccc2C(OCc2ccco2)(c2ccccc2)N1Cc1ccccc1` (stereo unspecified): the concentration for half-maximal inhibition (IC50) is > 500 µM.
In the case of `O=C1c2ccccc2C(NCCO)(c2ccccc2)N1Cc1ccccc1` (stereo unspecified), the IC50 was > 500 µM.
The same measure, in the same setting: in the case of `O=C(NCCOC1(c2ccccc2)c2ccccc2C(=O)N1Cc1ccccc1)c1ccncc1` (stereo unspecified) it was 278 µM; in that of `CCCCc1ncc(COC2(c3ccccc3)c3ccccc3C(=O)N2Cc2ccccc2)[nH]1` (stereo unspecified), 78 µM.
As for `COc1ccc([C@@H](O)COC2(c3ccccc3)c3ccccc3C(=O)N2Cc2ccco2)cc1` (stereo partly specified), the half-maximal inhibitory concentration (IC50) was 181 µM.
For `COc1ccc(CCOC2(c3ccccc3)c3ccccc3C(=O)N2Cc2ccccc2)cc1OC` (stereo unspecified), the IC50 worked out at 311 µM.

In another assay the target is Tumour suppressor p53/oncoprotein Mdm2 (Homo sapiens) (UniProt P04637+Q00987). The assay is described as follows: Induction of p53 dependent transcription in SJSA cell line by reporter gene assay. It counts as functional, cell-based. Conditions: SJSA-1. A general note: A reporter such as luciferase makes a cellular process visible.
Tumour suppressor p53/oncoprotein Mdm2 (Homo sapiens), sequence (P04637 whole entry, looked up): as the sequence (P04637 whole entry) above
Tumour suppressor p53/oncoprotein Mdm2 (Homo sapiens), sequence (Q00987 whole entry, looked up): as the sequence (Q00987 whole entry) above
Turning to `CCCN1C(=O)c2ccccc2C1(OCc1cc(OC)c(O)c(OC)c1)c1ccc(Cl)cc1` (stereo unspecified), the Activity result was “Dose-dependent effect”.
The same measure, in the same setting: then `O=C1c2ccccc2C(OCCCO)(c2ccc(Cl)cc2)N1Cc1ccccc1` (stereo unspecified), with “Dose-dependent effect”.

Another assay concerns SJSA-1. The assay is described as follows: Increase of p53 protein level in SJSA cell line by Western blot analysis. It counts as functional, cell-based. Conditions: Homo sapiens. (In western blotting, separated proteins are transferred to a membrane and probed.)
As for `CCCN1C(=O)c2ccccc2C1(OCc1cc(OC)c(O)c(OC)c1)c1ccc(Cl)cc1` (stereo unspecified), the result was inactive.
Regarding `O=C1c2ccccc2C(OCCCO)(c2ccc(Cl)cc2)N1Cc1ccccc1` (stereo unspecified), the outcome was inactive.

In another assay the test system is SJSA-1. The assay is described as follows: Increase of p21 protein level in SJSA cell line by Western blot analysis. It counts as functional, cell-based. Conditions: Homo sapiens.
Consider `CCCN1C(=O)c2ccccc2C1(OCc1cc(OC)c(O)c(OC)c1)c1ccc(Cl)cc1` (stereo unspecified), for which the Activity result was “Dose-dependent effect”.
On the same count and under the same terms, in the case of `O=C1c2ccccc2C(OCCCO)(c2ccc(Cl)cc2)N1Cc1ccccc1` (stereo unspecified) it was “Dose-dependent effect”.

A further assay concerns SJSA-1. The assay is described as follows: Increase of MDM2 protein level in SJSA cell line by Western blot analysis. It counts as functional, cell-based. Conditions: Homo sapiens.
As for `CCCN1C(=O)c2ccccc2C1(OCc1cc(OC)c(O)c(OC)c1)c1ccc(Cl)cc1` (stereo unspecified), the Activity result was “Dose-dependent effect”.
Take `O=C1c2ccccc2C(OCCCO)(c2ccc(Cl)cc2)N1Cc1ccccc1` (stereo unspecified): the Activity result is “Dose-dependent effect”.
